Assay results published in PubChem BioAssay (NCI).
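The compound was tested at five concentrations on cells cultured in 96-well plates, with a 48-hour exposure period. The concentration for 50% growth inhibition is given as GI50. TGI denotes the concentration required for complete inhibition of growth.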

Key:
Assay in all cases: growth of human tumour cells (NCI), 48 h
[1] = tested on: KM20L2 colon
[2] = tested on: OVCAR-4 ovarian
[3] = tested on: SK-OV-3 ovarian
[4] = tested on: KM12 colon
[5] = tested on: RPMI-8226 leukemia
[6] = tested on: A549 NSCLC
[7] = tested on: SF-295 CNS
[8] = tested on: RXF 393 renal
[9] = tested on: HCT-116 colon
[10] = tested on: COLO 205 colon
[11] = tested on: SK-MEL-2 melanoma
[12] = tested on: HCT-15 colon
[13] = tested on: MALME-3M melanoma
[14] = tested on: M14 melanoma
[15] = tested on: SF-539 CNS
[16] = tested on: DMS 273 small cell lung
[17] = tested on: DMS 114 small cell lung
[18] = tested on: HCC-2998 colon
[19] = tested on: CAKI-1 renal
[20] = tested on: CCRF-CEM leukemia
[21] = tested on: IGROV1 ovarian
[22] = tested on: SN12C renal
[23] = tested on: DLD-1 colon
[24] = tested on: EKVX NSCLC
[25] = tested on: SNB-75 CNS
[26] = tested on: SF-268 CNS
[27] = tested on: UACC-257 melanoma
[28] = tested on: SK-MEL-5 melanoma
[29] = tested on: A498 renal
[30] = tested on: LXFL 529 NSCLC
[31] = tested on: HOP-18 NSCLC
[32] = tested on: UO-31 renal
[33] = tested on: OVCAR-8 ovarian
[34] = tested on: ACHN renal
[35] = tested on: SK-MEL-28 melanoma
[36] = tested on: TK-10 renal
[37] = tested on: XF 498 CNS
[38] = tested on: M19-MEL melanoma
[39] = tested on: MOLT-4 leukemia
[40] = tested on: K-562 leukemia
[41] = tested on: OVCAR-5 ovarian
[42] = tested on: LOX IMVI melanoma
[43] = tested on: 786-0 renal
[44] = tested on: HOP-62 NSCLC
[45] = tested on: NCI-H226 lung
[46] = tested on: HL-60(TB) leukemia
[47] = tested on: HT29 colon
[48] = tested on: UACC-62 melanoma
[49] = tested on: NCI-H23 lung
[50] = tested on: OVCAR-3 ovarian
[51] = tested on: SNB-78 CNS
[52] = tested on: NCI-H522 lung
[53] = tested on: SW-620 colon
[54] = tested on: SNB-19 CNS

SMILES: [O-]c1ccccc1/C=N/c1nccs1.[O-]c1ccccc1/C=N/c1nccs1.[O]=[U+2]=[O]
- GI50 [1]: > 100 µM
- TGI [1]: > 100 µM
- GI50 [2]: > 100 µM
- TGI [2]: > 100 µM
- GI50 [3]: > 100 µM
- TGI [3]: > 100 µM
- GI50 [4]: > 100 µM
- TGI [4]: > 100 µM
- GI50 [5]: 37.7 µM
- TGI [5]: > 100 µM
- GI50 [6]: > 100 µM
- TGI [6]: > 100 µM
- GI50 [7]: > 100 µM
- TGI [7]: > 100 µM
- GI50 [8]: > 100 µM
- TGI [8]: > 100 µM
- GI50 [9]: 11.5 µM
- TGI [9]: > 100 µM
- GI50 [10]: > 100 µM
- TGI [10]: > 100 µM
- GI50 [11]: > 100 µM
- TGI [11]: > 100 µM
- GI50 [12]: 22.2 µM
- TGI [12]: > 100 µM
- GI50 [13]: > 100 µM
- TGI [13]: > 100 µM
- GI50 [14]: > 100 µM
- TGI [14]: > 100 µM
- GI50 [15]: 23.6 µM
- TGI [15]: > 100 µM
- GI50 [16]: 7.15 µM
- TGI [16]: > 100 µM
- GI50 [17]: 11.1 µM
- TGI [17]: > 100 µM
- GI50 [18]: 75.1 µM
- TGI [18]: > 100 µM
- GI50 [19]: 37.9 µM
- TGI [19]: > 100 µM
- GI50 [20]: > 100 µM
- TGI [20]: > 100 µM
- GI50 [21]: 42.4 µM
- TGI [21]: > 100 µM
- GI50 [22]: > 100 µM
- TGI [22]: > 100 µM
- GI50 [23]: 22.4 µM
- TGI [23]: > 100 µM
- GI50 [24]: > 100 µM
- TGI [24]: > 100 µM
- GI50 [25]: > 100 µM
- TGI [25]: > 100 µM
- GI50 [26]: > 100 µM
- TGI [26]: > 100 µM
- GI50 [27]: > 100 µM
- TGI [27]: > 100 µM
- GI50 [28]: > 100 µM
- TGI [28]: > 100 µM
- GI50 [29]: 26.2 µM
- TGI [29]: > 100 µM
- GI50 [30]: 29.1 µM
- TGI [30]: > 100 µM
- GI50 [31]: 5.75 µM
- TGI [31]: > 100 µM
- GI50 [32]: 37.4 µM
- TGI [32]: > 100 µM
- GI50 [33]: > 100 µM
- TGI [33]: > 100 µM
- GI50 [34]: > 100 µM
- TGI [34]: > 100 µM
- GI50 [35]: > 100 µM
- TGI [35]: > 100 µM
- GI50 [36]: 33.6 µM
- TGI [36]: 78.7 µM
- GI50 [37]: 98.9 µM
- TGI [37]: > 100 µM
- GI50 [38]: > 100 µM
- TGI [38]: > 100 µM
- GI50 [39]: 27.4 µM
- TGI [39]: > 100 µM
- GI50 [40]: 57.1 µM
- TGI [40]: > 100 µM
- GI50 [41]: > 100 µM
- TGI [41]: > 100 µM
- GI50 [42]: 25.7 µM
- TGI [42]: > 100 µM
- GI50 [43]: 25 µM
- TGI [43]: > 100 µM
- GI50 [44]: > 100 µM
- TGI [44]: > 100 µM
- GI50 [45]: > 100 µM
- TGI [45]: > 100 µM
- GI50 [46]: 35.5 µM
- TGI [46]: > 100 µM
- GI50 [47]: > 100 µM
- TGI [47]: > 100 µM
- GI50 [48]: > 100 µM
- TGI [48]: > 100 µM
- GI50 [49]: > 100 µM
- TGI [49]: > 100 µM
- GI50 [50]: > 100 µM
- TGI [50]: > 100 µM
- GI50 [51]: > 100 µM
- TGI [51]: > 100 µM
- GI50 [52]: 61.4 µM
- TGI [52]: > 100 µM
- GI50 [53]: 99.8 µM
- TGI [53]: > 100 µM
- GI50 [54]: 12.7 µM
- TGI [54]: > 100 µM
